Test results reported in patent US10294202B2, “Pyrrolidinones as herbicides” (FMC Corporation, priority 2013, dated 2019).

Assays:
Assay in all cases: Test C pre-/postemergence herbicide test
cocklebur = format: in vivo, Xanthium strumarium; conditions: Preemergence; for Cocklebur plant response rating: 31 g ai/ha
Source text: (§1) Seeds of plant species selected from blackgrass (Alopecurus myosuroides), ryegrass, Italian (Italian ryegrass, Lolium multiflorum), wheat (winter wheat, Triticum aestivum), galium (catchweed bedstraw, Galium aparine), corn (Zea mays), crabgrass, large (large crabgrass, Digitaria sanguinalis), foxtail, giant (giant foxtail, Setaria faberii), johnsongrass (Sorghum halepense), lambsquarters (Chenopodium album), morningglory (Ipomoea coccinea), nutsedge, yellow (yellow nutsedge, Cyperus esculentus), pigweed (Amaranthus retroflexus), ragweed (common ragweed, Ambrosia elatior), soybean (Glycine max), barnyardgrass (Echinochloa crus-galli), oilseed rape (Brassica napus), waterhemp (common waterhemp, Amaranthus rudis), kochia (Kochia scoparia), oat, wild (wild oat, Avena fatua), surinam grass (Brachiaria decumbens), foxtail, green (green foxtail, Setaria viridis), goosegrass (Eleusine indica), bromegrass, downy (downy bromegrass, Bromus tectorum), nightshade (eastern black nightshade, Solanum ptycanthum), cocklebur (common cocklebur, Xanthium strumarium), cupgrass, woolly (woolly cupgrass, Eriochloa villosa), bermudagrass (Cynodon dactylon), sunflower, (common oilseed sunflower, Helianthus annuus), Russian thistle (Salsola kali) and velvetleaf (Abutilon theophrasti) were planted into a blend of loam soil and sand and treated preemergence with test chemicals formulated in a non-phytotoxic solvent mixture which included a surfactant. At the same time, plants selected from these crop and weed species and also barley (winter barley, Hordeum vulgare), […]), chickweed (common chickweed, Stellaria media), deadnettle (henbit deadnettle, Lamium amplexicaule), and canarygrass (littleseed canarygrass, Phalaris minor) were planted in pots containing Redi-Earth® planting medium (Scotts Company, 14111 Scottslawn Road, Marysville, Ohio 43041) comprising spaghnum peat moss, vermiculite, wetting agent and starter nutrients and treated with postemergence applications of test chemicals formulated in the same manner. Plants ranged in height from 2 to 18 cm (1- to 4-leaf stage) for postemergence treatments. Treated plants and controls were maintained in a greenhouse for 13 to 15 days, after which time all species were compared to controls and visually evaluated. Plant response ratings, summarized in Table C, are based on a scale of 0 to 100 where 0 is no effect and 100 is complete control. A dash (-) response means no test result.

bermudagrass = format: in vivo, Cynodon dactylon; conditions: Preemergence; for Bermudagrass plant response rating: 31 g ai/ha
Source text: as §1

cupgrass, woolly = format: in vivo, Eriochloa villosa; conditions: Preemergence; for Cupgrass, Woolly plant response rating: 31 g ai/ha
Source text: as §1

nightshade = format: in vivo, Solanum ptycanthum; conditions: Preemergence
Source text: as §1

surinam grass = format: in vivo, Brachiaria decumbens; conditions: Preemergence
Source text: as §1

bromegrass, downy = format: in vivo, Bromus tectorum; conditions: Preemergence; for Bromegrass, Downy plant response rating: 31 g ai/ha
Source text: as §1

foxtail, green = format: in vivo, Setaria viridis; conditions: Preemergence; for Foxtail, Green plant response rating: 31 g ai/ha
Source text: as §1

goosegrass = format: in vivo, Eleusine indica; conditions: Preemergence; for Goosegrass plant response rating: 31 g ai/ha
Source text: as §1

sunflower = format: in vivo, Helianthus annuus; conditions: Preemergence
Source text: as §1

[1] = scale 0 to 100 (0 no effect, 100 complete control)
[2] = 125 g ai/ha, scale 0 to 100 (0 no effect, 100 complete control)
[3] = 250 g ai/ha, scale 0 to 100 (0 no effect, 100 complete control)
[4] = scale 0 to 100, 0 is no effect and 100 is complete control
[5] = 31 g ai/ha, scale 0 to 100, 0 is no effect and 100 is complete control

SMILES	Plant response rating, Cocklebur (cocklebur; [2])	Plant response rating, Bermudagrass (bermudagrass; 62 g ai/ha, scale 0 to 100)	Plant response rating, Bermudagrass (bermudagrass; [2])	Plant response rating, Bermudagrass (bermudagrass; [3])	Plant response rating, Cupgrass, Woolly (cupgrass, woolly; 62 g ai/ha, scale 0 to 100)	Plant response rating, Cupgrass, Woolly (cupgrass, woolly; [2])	Plant response rating, Cupgrass, Woolly (cupgrass, woolly; [3])	Plant response rating, Nightshade (nightshade; 62 g ai/ha, scale 0 to 100)	Plant response rating, Nightshade (nightshade; [2])	Plant response rating, Surinam Grass (surinam grass; 62 g ai/ha, scale 0 to 100)	Plant response rating, Surinam Grass (surinam grass; [2])	Plant response rating, Bromegrass, Downy (bromegrass, downy; 62 g ai/ha, scale 0 to 100)	Plant response rating, Bromegrass, Downy (bromegrass, downy; [2])	Plant response rating, Bromegrass, Downy (bromegrass, downy; [3])	Plant response rating, Foxtail, Green (foxtail, green; 62 g ai/ha, scale 0 to 100)	Plant response rating, Foxtail, Green (foxtail, green; [2])	Plant response rating, Foxtail, Green (foxtail, green; [3])	Plant response rating, Goosegrass (goosegrass; 62 g ai/ha, scale 0 to 100)	Plant response rating, Goosegrass (goosegrass; [2])	Plant response rating Sunflower (sunflower; 62 g ai/ha, scale 0 to 100)	also measured
O=C1NCC(c2cc(F)c(F)c(F)c2)C1C(=O)Nc1ccccc1C(F)(F)F (racemic) [Compound 33]	10	0	70	98	85	90	90	0	0	80	95	0	0	55	98	100	100	5	40	10	Cocklebur plant response rating (cocklebur; [1]): 0; Plant response rating, Cocklebur (cocklebur; [3]): 10; Bermudagrass plant response rating (bermudagrass; [1]): 0; Cupgrass, Woolly plant response rating (cupgrass, woolly; [1]): 60; Bromegrass, Downy plant response rating (bromegrass, downy; [1]): 0; Foxtail, Green plant response rating (foxtail, green; [1]): 95; Goosegrass plant response rating (goosegrass; [1]): 5
O=C1NCC(c2ccc(Cl)c(F)c2)C1C(=O)Nc1ccccc1F (centres unmarked) [Compound 53]	5	40	50	50	65	80	80	0	40	25	75	0	0	0	90	90	90	10	30	15	Plant response rating, Cocklebur (cocklebur; [3]): 5; Bermudagrass plant response rating (bermudagrass; [1]): 40; Cupgrass, Woolly plant response rating (cupgrass, woolly; [1]): 35; Bromegrass, Downy plant response rating (bromegrass, downy; [1]): 0; Foxtail, Green plant response rating (foxtail, green; [1]): 30; Goosegrass plant response rating (goosegrass; [1]): 0; Plant response rating Sunflower (sunflower; [2]): 20
O=C1NCC(c2cccc(OC(F)(F)F)c2)C1C(=O)Nc1cccc(F)c1F (centres unmarked) [Compound 68]		50	85	85	75	85	90	50	55	75	75	0	0	0	90	95	95	75	80	0	Cocklebur plant response rating (cocklebur; [4]): 15; Bermudagrass plant response rating (bermudagrass; [4]): 30; Cupgrass, Woolly plant response rating (cupgrass, woolly; [4]): 75; Nightshade plant response rating (nightshade; [5]): 10; Surinam Grass plant response rating (surinam grass; [5]): 40; Bromegrass, Downy plant response rating (bromegrass, downy; [4]): 0; Foxtail, Green plant response rating (foxtail, green; [4]): 90; Goosegrass plant response rating (goosegrass; [4]): 55; Sunflower plant response rating (sunflower; [5]): 0; Plant response rating Sunflower (sunflower; [2]): 10
